The values below come from ChEMBL document CHEMBL1154238, “Identification of specific small molecule ligands for stem loop 3 ribonucleic acid of the packaging signal Psi of human immunodeficiency virus-1” (J Med Chem, 2009).

Calls of active or inactive are those of the source. The calls are words filed in the database; no cut-off is given here.

Data set [1] concerns Nucleic Acid. Description: Selectivity ratio of Kd for HIV1 single-stranded RNA to Kd for 20mer stem loop 3 HIV1 RNA. In kind it is nucleic-acid assay. The settings on record: Human immunodeficiency virus 1.
Data set [2] concerns the target Nucleic Acid. Description: Binding affinity to fluorescein-labeled HIV1 duplex RNA of packaging element psi by titration method. The class given is nucleic-acid assay, Human immunodeficiency virus 1.
Data set [3] concerns the target Nucleic Acid. Nature of the data set: Binding affinity to fluorescein-labeled 20mer stem loop 3 HIV1 RNA of packaging element psi by titration method. The class given is nucleic-acid assay, Human immunodeficiency virus 1.
Data set [4] deals with Nucleic Acid. Nature of the data set: Binding affinity to fluorescein-labeled HIV1 single-stranded RNA of packaging element psi by titration method. The class given is nucleic-acid assay, Human immunodeficiency virus 1.
Data set [5] deals with Nucleic Acid. Description: Binding affinity to fluorescein-labeled stem loop 3 HIV1 duplex RNA of packaging element psi by titration method. In kind it is nucleic-acid assay, Human immunodeficiency virus 1.
Data set [6] relates to Nucleic Acid. Nature of the data set: Selectivity ratio of Kd for fluorescein-labeled HIV1 single-stranded RNA of packaging element psi to Kd for fluorescein-labeled 20mer stem loop 3 HIV1 RNA of packaging element psi. In kind it is nucleic-acid assay. The following applies: Human immunodeficiency virus 1.
Data set [7] concerns Nucleic Acid. Nature of the data set: Selectivity ratio of Kd for fluorescein-labeled HIV1 duplex RNA of packaging element psi to Kd for fluorescein-labeled 20mer stem loop 3 HIV1 RNA of packaging element psi. The class given is nucleic-acid assay. The following applies: Human immunodeficiency virus 1.
The nature of data set [8]: Solubility in DMSO. The class given is physicochemical.
Data set [9] can be described thus: Solubility in water. The settings on record: buffer. The class given is physicochemical.
In data set [10] the test system is Nucleic Acid. Description: Binding affinity to fluorescein-labeled stem loop 3 HIV1 RNA of packaging element psi by titration method. The class given is nucleic-acid assay. The settings on record: Human immunodeficiency virus 1.
Data set [11] addresses Nucleic Acid. Nature of the data set: Binding affinity to weaker binding site of unlabeled stem loop 2 HIV1 RNA of packaging element psi by isothermal titration calorimetry. In kind it is nucleic-acid assay, Human immunodeficiency virus 1.
Data set [12] deals with Nucleic Acid. Nature of the data set: Selectivity ratio of Kd for fluorescein-labeled HIV1 duplex RNA of packaging element psi to Kd for fluorescein-labeled 14mer stem loop 3 HIV1 RNA of packaging element psi. In kind it is nucleic-acid assay. The following applies: Human immunodeficiency virus 1.
Data set [13] addresses Nucleic Acid. Nature of the data set: Binding affinity to 2-aminopurine-labeled stem loop 4 HIV1 RNA of packaging element psi by titration method. The class given is nucleic-acid assay, Human immunodeficiency virus 1.
The target in data set [14] is Nucleic Acid. Description: Binding affinity to strong binding site of unlabeled stem loop 2 HIV1 RNA of packaging element psi by isothermal titration calorimetry. In kind it is nucleic-acid assay, Human immunodeficiency virus 1. For orientation: ITC needs no label: the signal is the heat of the interaction.
In data set [15] the target is Nucleic Acid. Nature of the data set: Binding affinity to fluorescein-labeled 14mer stem loop 3 HIV1 RNA of packaging element psi by titration method. The class given is nucleic-acid assay, Human immunodeficiency virus 1.
The test system of data set [16] is Nucleic Acid. Nature of the data set: Selectivity ratio of Kd for fluorescein-labeled HIV1 single-stranded RNA of packaging element psi to Kd for fluorescein-labeled 14mer stem loop 3 HIV1 RNA of packaging element psi. In kind it is nucleic-acid assay. The settings on record: Human immunodeficiency virus 1.
Data set [17] concerns Nucleic Acid. Description: Binding affinity to stem loop 3 HIV1 RNA of packaging element psi assessed as RNA intercalation at 55 to 220 uM by CD spectroscopy. The class given is nucleic-acid assay. The following applies: Human immunodeficiency virus 1.
In data set [18] the test system is Nucleic Acid. Nature of the data set: Binding affinity to fluorescein-labeled stem loop 3 HIV1 RNA of packaging element psi after 72 hrs by mass spectroscopy. In kind it is nucleic-acid assay. The following applies: Human immunodeficiency virus 1.
For data set [19], the system named is Nucleic Acid. Nature of the data set: Stabilization of stem loop 3 HIV1 RNA of packaging element psi assessed as melting temperature by UV spectroscopy. In kind it is nucleic-acid assay. The settings on record: Human immunodeficiency virus 1.
In data set [20] the test system is Nucleic Acid. Description: Binding affinity to fluorescein-labeled stem loop 2 HIV1 RNA of packaging element psi by titration method. In kind it is nucleic-acid assay, Human immunodeficiency virus 1.
In data set [21] the test system is Nucleic Acid. Description: Stabilization of stem loop 3 HIV1 RNA of packaging element psi assessed as protection against RNase 1-mediated cleavage at 500 uM by footprinting method. The class given is nucleic-acid assay. The following applies: Human immunodeficiency virus 1.
The subject of data set [22] is Nucleic Acid. Description: Selectivity ratio of Kd for fluorescein-labeled stem loop 2 HIV1 RNA of packaging element psi to Kd for fluorescein-labeled 14mer stem loop 3 HIV1 RNA of packaging element psi. The class given is nucleic-acid assay. The settings on record: Human immunodeficiency virus 1.
Data set [23] relates to Nucleic Acid. Nature of the data set: Selectivity ratio of Kd for fluorescein-labeled stem loop 4 HIV1 RNA of packaging element psi to Kd for fluorescein-labeled 14mer stem loop 3 HIV1 RNA of packaging element psi. In kind it is nucleic-acid assay. The settings on record: Human immunodeficiency virus 1.
In data set [24] the target is Nucleic Acid. Nature of the data set: Binding affinity to fluorescein-labeled stem loop 4 HIV1 RNA of packaging element psi by titration method. The class given is nucleic-acid assay, Human immunodeficiency virus 1.
The subject of data set [25] is Nucleic Acid. Description: Binding affinity to stem loop 3 HIV1 RNA of packaging element psi assessed as RNA intercalation at 55 to 110 uM by CD spectroscopy. The class given is nucleic-acid assay. The following applies: Human immunodeficiency virus 1.
Data set [26] addresses Nucleic Acid. Description: Binding affinity to unlabeled 20mer stem loop 3 HIV1 RNA of packaging element psi by titration method. In kind it is nucleic-acid assay, Human immunodeficiency virus 1.

With `COc1ccc2nc3cc(Cl)ccc3c(Nc3ccc(O)c(CN4CCN(C)CC4)c3)c2c1`, the Selectivity ratio in [1] turned out to be 4.4. Further, the Kd (as a rule, the concentration at which binding is half-saturated) in [2] is 0.87 µM; in data set [3] it was 0.67 µM; in data set [4], 3 µM.
As for `CCOC(=O)c1c2c(n3ccccc13)C(=O)c1ccccc1C2=O`, the Kd entry is “Not Active” in [5], 3 µM in data set [2], 1.4 µM in data set [3] and 2.3 µM in data set [4]. Further, the Selectivity ratio in data set [6] and in [7] was 2 throughout.
In [3], `O=C1Oc2ccccc2C(=O)/C1=C/N1C(=O)N/C(=C\c2ccccc2O)C1=O` had a dissociation constant Kd of 163 µM.
Still for that read-out and setting: for `C[N+]1(C)CCc2cc(O)c(O)cc2C1Cc1ccc(O)c(O)c1` (stereo unspecified) the value was 135 µM.
Take `Cc1ccn2c(CCc3nnc4cc(C)ccn34)nnc2c1`: the solubility entry in [8] and in [9] was “Insoluble” throughout.
Take `Cn1c(N)nc2c(nc(OCc3ccccc3)n2[C@@H]2O[C@H](CO)[C@@H](O)[C@@H]2O)c1=O`: the result in data set [10] was inactive.
On to `C[N+](C)(C)CCN[N+]1(C)CCCc2ccccc21` (stereo unspecified), for which the Kd in data set [5] (read-out: Kd) was determined as 14 µM; in [2] it was 6.1 µM; in data set [3], 1.5 µM; in data set [4] it was 7.8 µM. The Selectivity ratio in data set [6] and in data set [7] was 4 each time.
For `COC1=C(C)C(=O)c2c(c(COC(N)=O)c3n2CC2C3N2C)C1=O` (stereo unspecified), the Kd in data set [11] is 11000 µM; in [13] it was 79 µM; in data set [14] it was 110 µM; in data set [15] it was 98 µM; in data set [20], “Not Active”; in data set [2], 345 µM. Further, the dissociation constant (Kd) in [4] was above 4900 µM. The Selectivity ratio in [12] was found to be 3.5; in data set [16] it was 50. Besides, the outcome in [17], in data set [18] and in data set [21] was Active. Also, in data set [19], the Tm was 79.2 °C.
On to `Cc1cc(N2CCN(C)CC2)n2nc(-c3ccc(Cl)cc3)nc2n1`, for which the Kd stood at 2250 µM in data set [11]; 58 µM in [5] (read-out: Kd); 15 µM in [14]; 11 µM in data set [15]; 46 µM in [20] (read-out: Kd); 69 µM in [2]. In addition, the figures for the Kd in data set [24] and in data set [4] were 70 µM and 276 µM, respectively. The Selectivity ratio is 5 in data set [12], 4 in data set [22], 25 in [16] and 7 in [23]. In addition, in data set [19], the Tm came to 78.2 °C. Also, the outcome in data set [21] was Active. Besides, in data set [25], the outcome was inactive.
As to `CN(C)c1ncnc2c1ncn2CCn1cnc2ncnc(N(C)C)c21`, the Kd in data set [26] is 32 µM.
In turn, `C[N+]1(C)C2CC(OC(=O)C(CO)c3ccccc3)CC1C1OC12` (stereo unspecified) displayed a Kd in data set [15] of 157 µM.
